According to patent US8686044B2, “Amide derivative, pest control agent containing the amide derivative, and use of the amide derivative” (Mitsui Chemicals Agro, Inc., priority 2008, dated 2014):

Key:
Assay type in all cases: in vivo
[1] = test system: Plutella xylostella; experiment: Pesticidal test against Plutella xylostella (cabbage leaf dip); conditions: foliar, 144 h, concentration 1 ppm, 2-stage larvae, examined after 6 days, 25° C., read-out: pesticidal rate
How it was run: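 Second-stage larvae (5 per group, two replicates) were released onto air-dried cabbage leaf discs that had been immersed for 30 seconds in compound solution at a set concentration. Mortality was scored after 6 days at 25° C.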

[2] = test system: Spodoptera litura; experiment: Pesticidal test against Spodoptera litura (cabbage leaf dip); conditions: foliar, 144 h, concentration 1 ppm, 2-stage larvae, examined after 6 days, 25° C., read-out: pesticidal rate
How it was run: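 Cabbage leaf pieces dipped 30 seconds in compound solution at a predetermined concentration and air-dried, then offered to second-stage larvae, five per group in two replicates. Held at 25° C. Living and dead larvae counted after 6 days.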

[3] = test system: Laodelphax striatellus; experiment: Pesticidal test against Laodelphax striatellus (rice seedling spray); conditions: 144 h, concentration 100 ppm, 3-stage larvae, examined after 6 days, 25° C., read-out: pesticidal rate
How it was run: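 Rice seedlings sprayed with 2.5 ml acetone solution of compound at a predetermined concentration, air-dried, then infested with third-stage Laodelphax striatellus larvae in capped water-containing tubes at 25 °C. Living and dead insects counted after 6 days; ten larvae per group, two replicates.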

[4] = test system: Adoxophyes honmai; experiment: Pesticidal test against Adoxophyes honmai (artificial feed dip); conditions: 144 h, 2-stage larvae, examined after 6 days, 25° C., read-out: pesticidal rate; for pest or weed control at 1 ppm: concentration 1 ppm
How it was run: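 Second-instar larvae, five per group in duplicate, were released onto air-dried feed slices previously immersed for 30 s in compound solution at a set concentration. Mortality was scored on day 6 at 25° C.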

[5] = test system: Musca domestica; experiment: Pesticidal test against Musca domestica (petri dish dry film); conditions: 24 h, concentration 100 ppm, female adults, examined after 1 day, 25° C., read-out: pesticidal rate
How it was run: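 Female adult houseflies were confined at 25° C in capped 9 cm petri dishes coated with an air-dried film from 1 ml acetone solution of compound (predetermined concentration). Mortality was scored 1 day later, two replicates of five per group.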

[6] = test system: Blattella germanica; experiment: Pesticidal test against Blattella germanica (petri dish dry film); conditions: 24 h, concentration 100 ppm, female adults, examined after 1 day, 25° C., read-out: pesticidal rate
Method: Pesticidal Test against Blattella germanica
1 ml of an acetone solution in which a test compound had been prepared at a predetermined concentration was added dropwise to a petri dish having a diameter of 9 cm, and air-dried, and then the female adults of Blattella germanica were released and the petri dish was capped. They were left to stand in a thermostatic chamber at 25° C., and the numbers of the living pests and the dead pests were examined after 1 day. The test was carried out with five larvae per group in two replicates.

[7] = test system: Helicoverpa armigera; experiment: Pesticidal test against Helicoverpa armigera (cabbage leaf disk dip); conditions: foliar, 72 h, concentration 1 ppm, 2-stage larvae, examined after 3 days, 25° C., read-out: pesticidal rate
How it was run: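 Cabbage leaf disks were dipped for 30 s in test solution at a set concentration and air-dried. Second-instar larvae were placed one per hole and held at 25 °C, with live and dead counts taken after 3 days. Five larvae per group were tested in two replicates.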

O=C(Nc1c(Br)cc(C(F)(C(F)(F)F)C(F)(F)C(F)(F)F)cc1C(F)(F)F)c1cccc(NC(=O)c2ccccc2F)c1 (stereo not drawn) [6-347]
≥ 70%: pest or weed control at 1 ppm [1] | pest or weed control at 1 ppm [2] | pest or weed control at 100 ppm [3] | pest or weed control at 1 ppm [4] | pest or weed control at 100 ppm [5] | pest or weed control at 100 ppm [6] | pest or weed control at 1 ppm [7]

O=C(Nc1cccc(C(=O)Nc2c(Br)cc(C(F)(C(F)(F)F)C(F)(F)C(F)(F)F)cc2C(F)(F)F)c1)c1ccc(Cl)nc1 (stereo not drawn) [6-389]
≥ 70%: pest or weed control at 1 ppm [1] | pest or weed control at 1 ppm [2] | pest or weed control at 10 ppm ([4]; concentration 10 ppm) | pest or weed control at 100 ppm [5] | pest or weed control at 100 ppm [6] | pest or weed control at 1 ppm [7]

O=C(Nc1c(I)cc(C(F)(C(F)(F)F)C(F)(F)C(F)(F)F)cc1C(F)(F)F)c1cccc(NC(=O)c2ccccc2F)c1 (stereo not drawn) [6-503]
≥ 70%: pest or weed control at 1 ppm [1] | pest or weed control at 1 ppm [2] | pest or weed control at 100 ppm [3] | pest or weed control at 1 ppm [4] | pest or weed control at 100 ppm [5] | pest or weed control at 100 ppm [6] | pest or weed control at 1 ppm [7]

O=C(Nc1c(I)cc(C(F)(C(F)(F)F)C(F)(F)C(F)(F)F)cc1C(F)(F)F)c1cccc(NC(=O)c2cccnc2Cl)c1 (stereo not drawn) [6-538]
≥ 70%: pest or weed control at 1 ppm [1] | pest or weed control at 1 ppm [2] | pest or weed control at 1 ppm [4] | pest or weed control at 100 ppm [5] | pest or weed control at 100 ppm [6] | pest or weed control at 1 ppm [7]

N#Cc1ccc(C(=O)Nc2cccc(C(=O)Nc3c(I)cc(C(F)(C(F)(F)F)C(F)(F)C(F)(F)F)cc3I)c2F)cc1 (stereo not drawn) [6-1359]
≥ 70%: pest or weed control at 1 ppm [1] | pest or weed control at 1 ppm [2] | pest or weed control at 100 ppm [3] | pest or weed control at 100 ppm [5] | pest or weed control at 100 ppm [6] | pest or weed control at 1 ppm [7]

O=C(Nc1cccc(C(=O)Nc2c(Br)cc(C(F)(C(F)(F)F)C(F)(F)F)cc2C(F)(F)F)c1F)c1cccc(F)c1 [6-1576]
≥ 70%: pest or weed control at 1 ppm [1] | pest or weed control at 1 ppm [2] | pest or weed control at 100 ppm [3] | pest or weed control at 1 ppm [4] | pest or weed control at 100 ppm [5] | pest or weed control at 100 ppm [6] | pest or weed control at 1 ppm [7]

N#Cc1cccc(C(=O)Nc2cccc(C(=O)Nc3c(Br)cc(C(F)(C(F)(F)F)C(F)(F)F)cc3C(F)(F)F)c2F)c1 [6-1594]
≥ 70%: pest or weed control at 1 ppm [1] | pest or weed control at 1 ppm [2] | pest or weed control at 100 ppm [3] | pest or weed control at 1 ppm [4] | pest or weed control at 100 ppm [5] | pest or weed control at 100 ppm [6] | pest or weed control at 1 ppm [7]

O=C(Nc1cccc(C(=O)Nc2c(I)cc(C(F)(C(F)(F)F)C(F)(F)F)cc2C(F)(F)F)c1F)c1ccc(Cl)nc1 [6-1773]
≥ 70%: pest or weed control at 1 ppm [1] | pest or weed control at 1 ppm [2] | pest or weed control at 100 ppm [3] | pest or weed control at 100 ppm [5] | pest or weed control at 100 ppm [6]

O=C(Nc1cccc(C(=O)Nc2c(Br)cc(C(F)(C(F)(F)F)C(F)(F)C(F)(F)F)cc2Br)c1)c1cccc(F)c1 (stereo not drawn) [6-5905]
≥ 70%: pest or weed control at 1 ppm [1] | pest or weed control at 1 ppm [2] | pest or weed control at 100 ppm [3] | pest or weed control at 100 ppm [5] | pest or weed control at 100 ppm [6]

CN(C(=O)c1cccnc1Cl)c1cccc(C(=O)Nc2c(Br)cc(C(F)(C(F)(F)F)C(F)(F)C(F)(F)F)cc2Br)c1 (stereo not drawn) [7-57]
≥ 70%: pest or weed control at 1 ppm [1] | pest or weed control at 1 ppm [2] | pest or weed control at 100 ppm [3] | pest or weed control at 100 ppm [5] | pest or weed control at 100 ppm [6]

CN(C(=O)c1c(F)cccc1F)c1cccc(C(=O)Nc2c(I)cc(C(F)(C(F)(F)F)C(F)(F)F)cc2C(F)(F)F)c1 [7-446]
≥ 70%: pest or weed control at 1 ppm [1] | pest or weed control at 1 ppm [2] | pest or weed control at 100 ppm [3] | pest or weed control at 100 ppm [5] | pest or weed control at 100 ppm [6]

CN(C(=O)c1ccccc1F)c1cccc(C(=O)Nc2c(Br)cc(C(F)(C(F)(F)F)C(F)(F)F)cc2Br)c1F [7-1105]
≥ 70%: pest or weed control at 1 ppm [1] | pest or weed control at 1 ppm [2] | pest or weed control at 100 ppm [3] | pest or weed control at 100 ppm [5] | pest or weed control at 100 ppm [6]

CN(C(=O)c1c(F)cccc1F)c1cccc(C(=O)Nc2c(Br)cc(C(F)(C(F)(F)F)C(F)(F)F)cc2Br)c1F [7-1126]
≥ 70%: pest or weed control at 1 ppm [1] | pest or weed control at 1 ppm [2] | pest or weed control at 100 ppm [3] | pest or weed control at 100 ppm [5] | pest or weed control at 100 ppm [6]

CN(C(=O)c1c(F)cccc1F)c1cccc(C(=O)Nc2c(I)cc(C(F)(C(F)(F)F)C(F)(F)F)cc2I)c1F [7-1282]
≥ 70%: pest or weed control at 1 ppm [1] | pest or weed control at 1 ppm [2] | pest or weed control at 100 ppm [3] | pest or weed control at 100 ppm [5] | pest or weed control at 100 ppm [6]

CN(C(=O)c1cccnc1Cl)c1cccc(C(=O)Nc2c(I)cc(C(F)(C(F)(F)F)C(F)(F)F)cc2I)c1F [7-1296]
≥ 70%: pest or weed control at 1 ppm [1] | pest or weed control at 1 ppm [2] | pest or weed control at 100 ppm [3] | pest or weed control at 100 ppm [5] | pest or weed control at 100 ppm [6]

CN(C(=O)c1ccc(Cl)nc1)c1cccc(C(=O)Nc2c(I)cc(C(F)(C(F)(F)F)C(F)(F)C(F)(F)F)cc2I)c1F (stereo not drawn) [7-1381]
≥ 70%: pest or weed control at 1 ppm [1] | pest or weed control at 1 ppm [2] | pest or weed control at 100 ppm [3] | pest or weed control at 100 ppm [5] | pest or weed control at 100 ppm [6]

CN(C(=O)c1ccccc1F)c1cccc(C(=O)Nc2c(Br)cc(C(F)(C(F)(F)F)C(F)(F)F)cc2C(F)(F)F)c1F [7-1575]
≥ 70%: pest or weed control at 1 ppm [1] | pest or weed control at 1 ppm [2] | pest or weed control at 100 ppm [3] | pest or weed control at 100 ppm [5] | pest or weed control at 100 ppm [6]

CN(C(=O)c1c(F)cccc1F)c1cccc(C(=O)Nc2c(Br)cc(C(F)(C(F)(F)F)C(F)(F)F)cc2C(F)(F)F)c1F [7-1596]
≥ 70%: pest or weed control at 1 ppm [1] | pest or weed control at 1 ppm [2] | pest or weed control at 100 ppm [3] | pest or weed control at 100 ppm [5] | pest or weed control at 100 ppm [6]

CN(C(=O)c1c(F)cccc1F)c1cccc(C(=O)Nc2c(I)cc(C(F)(C(F)(F)F)C(F)(F)F)cc2C(F)(F)F)c1F [7-1752]
≥ 70%: pest or weed control at 1 ppm [1] | pest or weed control at 1 ppm [2] | pest or weed control at 100 ppm [3] | pest or weed control at 100 ppm [5] | pest or weed control at 100 ppm [6]

CN(C(=O)c1cccnc1Cl)c1cccc(C(=O)Nc2c(I)cc(C(F)(C(F)(F)F)C(F)(F)F)cc2C(F)(F)F)c1F [7-1766]
≥ 70%: pest or weed control at 1 ppm [1] | pest or weed control at 1 ppm [2] | pest or weed control at 100 ppm [3] | pest or weed control at 100 ppm [5] | pest or weed control at 100 ppm [6]
